Measured values reported in patent US20230255953A1, “USE OF ROLUPERIDONE IN PREVENTING RELAPSE IN SCHIZOPHRENIA PATIENTS” (Minerva Neurosciences, Inc., priority 2022, published 2023).

Tested on: patients with negative symptoms of schizophrenia
Experiment: Integrated analysis of Studies #1 and #2 (pooled ITT): PANSS-derived scores (NSFS, total, positive and negative subscales), DB, OL and whole study
Type: in vivo, human
Design: key to NSFS Score change from Baseline, Median: change from Baseline in PANSS NSFS points; higher score = more severe
Conditions: for NSFS Score change from Baseline, LS mean (SE) / NSFS Score change from Baseline, Mean (SD) / NSFS Score change from Baseline, Median / NSFS Score, Difference (95% CI) in LS mean (vs placebo) / PANSS Negative Subscale Score change from Baseline, LS mean (SE) / PANSS Negative Subscale Score change from Baseline, Mean (SD) / PANSS Negative Subscale Score change from Baseline, Median / PANSS Negative Subscale Score, Difference (95% CI) in LS mean (vs placebo) / PANSS Total Score change from Baseline, LS mean (SE) / PANSS Total Score change from Baseline, Mean (SD) / PANSS Total Score change from Baseline, Median / PANSS Total Score, Difference (95% CI) in LS mean (vs placebo): DB
Procedure: The primary integrated analysis of the efficacy of Roluperidone compared with placebo for the treatment of negative symptoms of schizophrenia is based on the change from Baseline in the PANSS Marder's negative symptoms factor score (in this document referred to as NSFS) to Week 12. Efficacy is also supported by the analysis of change from Baseline in the PSP Total score and the CGI-S to Week 12.
The PANSS was assessed at the time points described in Table 4.
The PANSS-derived endpoints used in these studies and the integrated analyses are described in Table 5A and a summary of the individual PANSS items used by physicians and clinicians to measure the severity of the symptoms in a schizophrenia patient is provided in Table 5B. The scale is divided into three parts, a positive scale, which provides a “PANSS positive subscore”, a negative scale, which provides a “PANSS negative subscore”, and general psychopathology scale. The sum of these three parts provides a PANSS total score, which ranges from 30 to 210 (where higher scores indicate more severe symptoms). (See Kay, S. R., et al. “The positive and negative syndrome scale (PANSS) for schizophrenia,” Schizophr Bulletin, 13(2), 261-276 (1987) and Gopal, S., et al. “Improvement of Negative Symptoms in Schizophrenia with Paliperidone Palmitate 1-Month and 3-Month Long-Acting Injectables: Results from a Phase 3 Non-Inferiority Study” Neuropsychiatric Disease and Treatment, 681-690, DOI: 10.2147/NDT.5226296, both of which are incorporated by reference.)
The Efficacy data from Study Nos. 1 and 2 were pooled. The majority of patients in the pooled ITT population completed the DB period (502 patients overall, 66.3%), with similar rates in each treatment group (placebo: 69.8%, 32 mg Roluperidone: 65.3%, and 64 mg Roluperidone: 63.8%) (Table 12). The majority (62.7%) of those who completed the DB period entered the OL period. The most common reason for discontinuation during the DB period among patients overall was withdrawal of consent (15.6%), followed by adverse events (7.3%) and lack of efficacy (5.4%) (Table 12). […] Approximately twice as many patients in the Roluperidone groups (32 mg: 8.5%; 64 mg: 9.1%) discontinued due to adverse events compared with patients in the placebo group (4.3%). More patients in the placebo group discontinued due to lack of efficacy (6.7%) than in the Roluperidone groups (32 mg: 4.4%; 64 mg: 5.1%). The low number of patients who discontinued due to lack of efficacy or withdrawal of consent probably reflects a low level of worsening of positive symptoms.
The integrated analysis supporting the efficacy of Roluperidone as a treatment for the negative symptoms of schizophrenia in adults is presented below.

1H-Isoindol-1-one,2-[ [1-[2-(4-fluorophenyl)-2-oxoethyl]-4-piperidinyl]methyl]-2,3-dihydro-, hydrochloride, hydrate (1:1:2) [Roluperidone]
Mean NSFS score improvements, persistence in OL period (32 mg and 64 mg groups, OL period incl. 2 weeks after end of treatment, pooled): sustained and continued during the OL period | NSFS Score change from Baseline, LS mean (SE) (32 mg, Week 2, pooled ITT): −1.1 (0.15) | NSFS Score change from Baseline, Mean (SD) (32 mg, Week 2, pooled ITT): −1.1 (2.15) | NSFS Score change from Baseline, Median (32 mg, Week 2, pooled ITT): −1.0 | NSFS Score, Difference (95% CI) in LS mean (vs placebo) (32 mg, Week 2, pooled ITT): −0.2 | PANSS Negative Subscale Score change from Baseline, LS mean (SE) (32 mg, Week 2, pooled ITT): −1.2 (0.14) | PANSS Negative Subscale Score change from Baseline, Mean (SD) (32 mg, Week 2, pooled ITT): −1.2 (2.11) | PANSS Negative Subscale Score change from Baseline, Median (32 mg, Week 2, pooled ITT): −1.0 | PANSS Negative Subscale Score, Difference (95% CI) in LS mean (vs placebo) (32 mg, Week 2, pooled ITT): −0.1 | PANSS Total Score change from Baseline, LS mean (SE) (32 mg, Week 2, pooled ITT): −1.7 (0.44) | PANSS Total Score change from Baseline, Mean (SD) (32 mg, Week 2, pooled ITT): −1.8 (6.62) | PANSS Total Score change from Baseline, Median (32 mg, Week 2, pooled ITT): −2.0 | PANSS Total Score, Difference (95% CI) in LS mean (vs placebo) (32 mg, Week 2, pooled ITT): −0.4 | PANSS Positive Subscale Score change from Baseline, LS mean (SE) (32 mg, Week 2, pooled ITT): 0.3 (0.17) | PANSS Positive Subscale Score change from Baseline, Mean (SD) (32 mg, Week 2, pooled ITT): 0.2 (2.71) | PANSS Positive Subscale Score change from Baseline, Median (32 mg, Week 2, pooled ITT): 0.0 | PANSS Positive Subscale Score, Difference (95% CI) in LS mean (vs placebo) (32 mg, Week 2, pooled ITT): 0.3 | NSFS Score change from Baseline, LS mean (SE) (32 mg, Week 4, pooled ITT): −2.0 (0.19) | NSFS Score change from Baseline, Mean (SD) (32 mg, Week 4, pooled ITT): −2.2 (2.53) | NSFS Score change from Baseline, Median (32 mg, Week 4, pooled ITT): −2.0 | NSFS Score, Difference (95% CI) in LS mean (vs placebo) (32 mg, Week 4, pooled ITT): −0.7 | PANSS Negative Subscale Score change from Baseline, LS mean (SE) (32 mg, Week 4, pooled ITT): −2.1 (0.19) | PANSS Negative Subscale Score change from Baseline, Mean (SD) (32 mg, Week 4, pooled ITT): −2.3 (2.67) | PANSS Negative Subscale Score change from Baseline, Median (32 mg, Week 4, pooled ITT): −2.0 | PANSS Negative Subscale Score, Difference (95% CI) in LS mean (vs placebo) (32 mg, Week 4, pooled ITT): −0.6 | PANSS Total Score change from Baseline, LS mean (SE) (32 mg, Week 4, pooled ITT): −3.6 (0.53) | PANSS Total Score change from Baseline, Mean (SD) (32 mg, Week 4, pooled ITT): −4.4 (7.09) | PANSS Total Score change from Baseline, Median (32 mg, Week 4, pooled ITT): −4.0 | PANSS Total Score, Difference (95% CI) in LS mean (vs placebo) (32 mg, Week 4, pooled ITT): −1.6 | PANSS Positive Subscale Score change from Baseline, LS mean (SE) (32 mg, Week 4, pooled ITT): −0.1 (0.18) | PANSS Positive Subscale Score change from Baseline, Mean (SD) (32 mg, Week 4, pooled ITT): −0.4 (2.49) | PANSS Positive Subscale Score change from Baseline, Median (32 mg, Week 4, pooled ITT): 0.0 | PANSS Positive Subscale Score, Difference (95% CI) in LS mean (vs placebo) (32 mg, Week 4, pooled ITT): −0.3 | NSFS Score change from Baseline, LS mean (SE) (32 mg, Week 8, pooled ITT): −3.0 (0.23) | NSFS Score change from Baseline, Mean (SD) (32 mg, Week 8, pooled ITT): −3.2 (3.21) | NSFS Score change from Baseline, Median (32 mg, Week 8, pooled ITT): −3.0 | NSFS Score, Difference (95% CI) in LS mean (vs placebo) (32 mg, Week 8, pooled ITT): −0.8 | PANSS Negative Subscale Score change from Baseline, LS mean (SE) (32 mg, Week 8, pooled ITT): −3.1 (0.24) | PANSS Negative Subscale Score change from Baseline, Mean (SD) (32 mg, Week 8, pooled ITT): −3.2 (3.46) | PANSS Negative Subscale Score change from Baseline, Median (32 mg, Week 8, pooled ITT): −3.0 | PANSS Negative Subscale Score, Difference (95% CI) in LS mean (vs placebo) (32 mg, Week 8, pooled ITT): −0.7 | PANSS Total Score change from Baseline, LS mean (SE) (32 mg, Week 8, pooled ITT): −4.9 (0.66) | PANSS Total Score change from Baseline, Mean (SD) (32 mg, Week 8, pooled ITT): −6.2 (7.89) | PANSS Total Score change from Baseline, Median (32 mg, Week 8, pooled ITT): −6.0 | PANSS Total Score, Difference (95% CI) in LS mean (vs placebo) (32 mg, Week 8, pooled ITT): −1.7 | PANSS Positive Subscale Score change from Baseline, LS mean (SE) (32 mg, Week 8, pooled ITT): −0.1 (0.20) | PANSS Positive Subscale Score change from Baseline, Mean (SD) (32 mg, Week 8, pooled ITT): −0.4 (2.50) | PANSS Positive Subscale Score change from Baseline, Median (32 mg, Week 8, pooled ITT): 0.0 | PANSS Positive Subscale Score, Difference (95% CI) in LS mean (vs placebo) (32 mg, Week 8, pooled ITT): −0.3 | NSFS Score change from Baseline, LS mean (SE) (32 mg, Week 12, pooled ITT): −3.5 (0.26) | NSFS Score change from Baseline, Mean (SD) (32 mg, Week 12, pooled ITT): −3.6 (3.08) | NSFS Score change from Baseline, Median (32 mg, Week 12, pooled ITT): −4.0 | NSFS Score, Difference (95% CI) in LS mean (vs placebo) (32 mg, Week 12, pooled ITT): −0.8 | PANSS Negative Subscale Score change from Baseline, LS mean (SE) (32 mg, Week 12, pooled ITT): −3.6 (0.27) | PANSS Negative Subscale Score change from Baseline, Mean (SD) (32 mg, Week 12, pooled ITT): −3.6 (3.37) | PANSS Negative Subscale Score change from Baseline, Median (32 mg, Week 12, pooled ITT): −3.0 | PANSS Negative Subscale Score, Difference (95% CI) in LS mean (vs placebo) (32 mg, Week 12, pooled ITT): −0.7 | PANSS Total Score change from Baseline, LS mean (SE) (32 mg, Week 12, pooled ITT): −5.5 (0.71) | PANSS Total Score change from Baseline, Mean (SD) (32 mg, Week 12, pooled ITT): −6.9 (7.77) | PANSS Total Score change from Baseline, Median (32 mg, Week 12, pooled ITT): −7.0 | PANSS Total Score, Difference (95% CI) in LS mean (vs placebo) (32 mg, Week 12, pooled ITT): −1.9 | NSFS Emotional Experience Score, Change from Baseline (LS Means [SEM]) (32 mg, Week 12, ITT): −1.3 (0.13) | NSFS Emotional Expression Score, Change from Baseline (LS Means [SEM]) (32 mg, Week 12, ITT): −2.2 (0.16) | NSFS, Change from Baseline (LS Means [SEM]) (32 mg, Week 12, ITT): −3.5 (0.26) | PANSS General Psychopathology Subscale, Change from Baseline (LS Means [SEM]) (32 mg, Week 12, ITT): −2.0 (0.37) | PANSS Negative Symptoms Subscale, Change from Baseline (LS Means [SEM]) (32 mg, Week 12, ITT): −3.6 (0.27) | PANSS Positive Symptoms Subscale, Change from Baseline (LS Means [SEM]) (32 mg, Week 12, ITT): −0.1 (0.21) | PANSS Total Score, Change from Baseline (LS Means [SEM]) (32 mg, Week 12, ITT): −5.5 (0.71) | Patients with high improvement in NSFS (magnitude of change >8) (32 mg, Week 12, pooled): 5% | Patients with moderate improvement in NSFS (magnitude of change 6-8) (32 mg, Week 12, pooled): 18% | Patients with moderate or high improvement in NSFS, total (32 mg, Week 12, pooled): 23% | NSFS, LS mean decrease from Baseline compared with placebo (32 mg, Week 12, pooled ITT): −3.5 | PANSS Positive Subscale Score change from Baseline, LS mean (SE) (32 mg, Week 12, pooled ITT): −0.1 (0.21) | PANSS Positive Subscale Score change from Baseline, Mean (SD) (32 mg, Week 12, pooled ITT): −0.6(2.37) | PANSS Positive Subscale Score change from Baseline, Median (32 mg, Week 12, pooled ITT): 0.0 | PANSS Positive Subscale Score, Difference (95% CI) in LS mean (vs placebo) (32 mg, Week 12, pooled ITT): −0.3 | PANSS negative subscale score, LS mean change from Baseline compared with placebo (32 mg, Week 12, pooled ITT): −0.7
